Reference: patent US10976320B2, “Methods for identifying and treating cancer patients” (The Board of Trustees of the Leland Stanford Junior …, priority 2013, dated 2021)

Columns and labels:
Brg1fl/fl(ERD) ESCs = experiment: Cell cycle analysis (BrdU/7-AAD FACS) with or without caffeine; format: cell-based, mouse; details: caffeine added to media 2 h before BrdU incubation; FIG. 1D
Source text: FIG. 1A-FIG. 1F. BRG1 associates with Topo2A and regulates its function. FIG. 1A, Anaphase bridges in Brg1^fl/fl and Brg1^fl/fl(ERD) ESCs. Data represent number of slides from four independent experiments±s.e.m. FIG. 1B, Co-immunoprecipitation of BRG1 and Topo2A from nuclear lysates. FIG. 1C, DNA content in Brg1^fl/fl and Brg1^fl/fl(ERD) ESCs after release from double thymidine block. FIG. 1D, Cell cycle analysis of Brg1^fl/fl and Brg1^fl/fl(ERD) ESCs with or without caffeine, an ATM/ATR inhibitor. FIG. 1E, Data represent five independent histone H3 serine 10 phosphorylation (H3(S10)P cell cycle analyses±s.e.m. FIG. 1F, Data represent the mean of the average chromosome length per cell from 40 cells from metaphase spreads of Brg1^fl/fl and Brg1^fl/fl(ERD) MEFs from two independent experiments.
The cell cycle analysis was performed using BD Biosciences BrdU-FITC FACS kit. ESCs were incubated with BrdU for 1 h and MEFs were incubated with BrdU for 4 h. Brg1^fl/fl and Brg1^fl/fl(ERD) ESCs were analysed 72 h after tamoxifen treatment. Caffeine was added to media 2 h before BrdU incubation. To determine the percent of cells in G2/M, DNA was stained with 7-AAD and analysed by FACS.

[1] = test system: ARID1A wild-type cells (293T and ES2) and ARID1A mutant cells (Hec1b, SKOV3, T47D, and TOV21G); experiment: Synthetic lethal screen, Cell Titer Blue viability after treatment with topoisomerase inhibitors; format: cell-based; details: ARID1A mutant vs wild-type cell lines; IC50 (μM) only plotted in FIG. 11A-C; 72 h after compound addition
Experimental: FIG. 11A-FIG. 11C. Synthetic lethal screen comparing the sensitivity of ARID1A wild-type cells (293T and ES2) and ARID1A mutant cells (Hec1b, SKOV3, T47D, and TOV21G) to treatment with topoisomerase inhibitors. Values of IC50 (μM) are plotted on the y-axis, with error bars as shown. FIG. 11A: treatment with etoposide; FIG. 11B: treatment with doxorubicin; FIG. 11C: treatment with ICRF-193.
In each case, 1500-2000 cells were plated in 100 ul per 384 well clear bottom black plate (E&K Scientific EK-30091). After 24 hours, doses of the listed compound diluted in DMSO were pinned into the plates. After 48 hours, 10 ul of Cell Titer Blue (Promega) was added, and the cells were placed back in the incubator. Fluorescence was read after another 24 hours. IC50 values (μM) are reported on the y-axis.

[2] = test system: NCI60 non small cell lung cancer lines expressing BRG1/BRM or deficient in both; details: BRG1/BRM-deficient vs expressing NCI60 lung lines; IC50 (μM) only plotted in FIG. 12A-B; CellMiner data; cited from earlier work

| Compound | effect on G2/M arrest (Brg1fl/fl(ERD) ESCs) | sensitivity of cell lines carrying mutations in BAF subunits to the topoisomerase inhibitor [1] | sensitivity of cell lines carrying mutations in BAF subunits to the topoisomerase inhibitor [2] |
| --- | --- | --- | --- |
| Cn1c(=O)c2c(ncn2C)n(C)c1=O [Caffeine] | overrides the G2/M arrest |  |  |
| COc1cccc2c1C(=O)c1c(O)c3c(c(O)c1C2=O)C[C@@](O)(C(=O)CO)C[C@@H]3O[C@H]1C[C@H](N)[C@H](O)[C@H](C)O1 [doxorubicin] |  | decreased sensitivity | decreased sensitivity |
| COc1cc([C@@H]2c3cc4c(cc3[C@@H](O[C@@H]3O[C@@H]5CO[C@@H](C)O[C@H]5[C@H](O)[C@H]3O)[C@H]3COC(=O)[C@H]23)OCO4)cc(OC)c1O [etoposide] |  | decreased sensitivity | decreased sensitivity |
| ICRF-193 |  | no difference in the sensitivity |  |
